# From PMC6918687, “Pharmacological inhibition of TAK1, with the selective inhibitor takinib, alleviates clinical manifestation of arthritis in CIA mice” (Arthritis Research & Therapy, 2019)
# Legend:
# CIA mice [1] = experiment: CIA mouse model: joint histopathology scores, day 36; type: in vivo, DBA/1 mice
# Text: After 1–2 days in fixative and 4–5 days in 5% formic acid for decalcification, tissues were trimmed and processed for paraffin embedding. Paws were embedded in paraffin in the frontal plane, and the knees were embedded with the patella facing down. Ankles, if left attached to the hind paw, were also embedded in the frontal plane but may be detached and sectioned in the sagittal plane for special purposes. Left/right pairs were typically embedded in the same block. Sections were cut and stained with toluidine blue.
# The paw score criteria were as follows: 0 = Normal. 0.5 = Very minimal, affects only 1 joint or minimal multifocal periarticular infiltration of inflammatory cells. 1 = Minimal infiltration of inflammatory cells in synovium and periarticular tissue of affected joints. 2 = Mild infiltration of inflammatory cells. When referring to paws, generally restricted to affected joints (1–3 affected). 3 = Moderate infiltration with moderate edema. When referring to paws, restricted to affected joints, generally 3–4 joints and the wrist or ankle. 4 = Marked infiltration affecting most areas with marked edema, 1 or 2 unaffected joints may be present. 5 = Severe diffuse infiltration with severe edema affecting all joints (to some extent) and periarticular tissues.
# The knee score criteria were as follows: 0 = Normal. 0.5 = Very minimal, affects only one area of the synovium or minimal multifocal periarticular infiltration of inflammatory cells. 1 = Minimal infiltration of inflammatory cells in synovium and periarticular tissue of affected synovial areas. 2 = Mild diffuse infiltration of inflammatory cells. 3 = Moderate diffuse infiltration of inflammatory cells. 4 = Marked diffuse infiltration of inflammatory cells. 5 = Severe diffuse infiltration of inflammatory cells.
# The cartilage damage score criteria were as follows: 0 = Normal. 0.5 = Very minimal = Affects marginal zones only of one to several areas (knees) or joints (paws). 1 = Minimal = Generally minimal to mild loss of toluidine blue staining (proteoglycan) with no obvious chondrocyte loss or collagen disruption in affected joints/areas. 2 = Mild = Generally mild loss of toluidine blue staining (proteoglycan) with focal areas of chondrocyte loss and/or collagen disruption in some affected joints/areas. Paws may have one or two digit joints with near total to total loss of cartilage. 3 = Moderate = Generally moderate loss of toluidine blue staining (proteoglycan) with multifocal chondrocyte loss and/or collagen disruption in affected joints/areas. Paws may have three or four joints with near total or total loss. In the knee, some matrix remains on any affected surface with areas of severe matrix loss. 4 = Marked = Marked loss of toluidine blue staining (proteoglycan) with multifocal marked (depth to deep zone or tidemark) chondrocyte loss and/or collagen disruption in most joints with a few unaffected or mildly affected. In the knee, one surface with total to near total cartilage loss. 5 = Severe = Severe diffuse loss of toluidine blue staining (proteoglycan) with severe (depth to tide mark) chondrocyte loss and/or collagen disruption in most or all joints.
# CIA mice [2] = experiment: Type II collagen-induced arthritis (CIA) mouse model: clinical arthritis score and body weight; type: in vivo, DBA/1 mice; conditions: for % Inhibition from Vehicle Disease (clinical score AUC): day 36
# Method: The DBA/1 CIA model was conducted in accordance with The Guide for the Care & Use of Laboratory Animals (8th Edition) and therefore in accordance with all Bolder BioPATH IACUC approved policies and procedures. The Bolder Biopath IACUC approved a “blanket” IACUC protocol for this specific working protocol (BBP-001). No acceptable alternative test systems were identified for the animals used in this study. […] Clinical evaluation was performed under experimenter blinded conditions.
# Collagen was prepared as a 4 mg/ml solution in 0.01 N acetic acid. Equal volumes of 4 mg/ml collagen and 5 mg/ml Freund’s complete adjuvant were emulsified by hand mixing with syringes for approximately 5 min, at which point a bead of this material holds its form when placed in water. On study days 0 and 21, animals were anesthetized with isoflurane and given intradermal injections of a total of 400 μg of type II collagen in Freund’s complete adjuvant at the base of the tail.
# Mice were randomized by body weight into treatment groups on study day 18. Treatment was initiated following enrollment. On study day 36, the mice were euthanized for necropsy. Clinical scores were given for each of the paws (right front, left front, right rear, left rear) on study days 18–36. Experimenter was blinded from the treatment group during clinical evaluation and scoring.
# RA-FLS cells = experiment: NF-κB signaling protein array, TNF-stimulated RA-FLS cells; type: cell-based, human; conditions: TNF 30 ng/mL 24 h
# Method: Rheumatoid arthritis fibroblast-like synoviocytes (RA-FLS) cells were prepared from surgical synovial samples at the University of Michigan as previously described. Cells were isolated from 4 individual patients (3 female, 1 male) and passaged no more than 2 times before use. Cells were cultured in CRML media, 10% FBS, 1% penicillin-streptomycin (PS), and 1% glutamate.
# Briefly, 10^6 cells were plated and either no treatment (naïve) or pretreated with takinib (10 μM) or vehicle (DMSO) for 30 min prior to stimulation with TNF (30 ng/mL) for 30 min at 37 °C in 5% CO2 for phospho-kinase assay (R&D Systems). NF-κB and cytokine assays were performed as previously described; however, cells were incubated for 24 h post-TNF (30 ng/mL) or LPS (10 ng/mL) stimulation.
smiles,measurement,setting,value
CCCn1/c(=N/C(=O)c2cccc(C(N)=O)c2)[nH]c2ccccc21 [takinib],reduction of disease burden,CIA mice [1]; 50 mg/kg daily (discussion),~ 40%
same,reduction of overall periosteal bone width vs vehicle,"CIA mice [1]; 50 mg/kg daily, all joints, p = 0.06",35%
same,reduction of overall sum score of knees,"CIA mice [1]; 50 mg/kg daily, day 36",~ 40%
same,"cartilage damage score, all joints","CIA mice [1]; 50 mg/kg daily, day 36, p = 0.013",significantly reduced
same,"inflammation score, all joints","CIA mice [1]; 50 mg/kg daily, day 36, p = 0.019",significantly reduced
same,reduction of overall joint pathology (all joints summed histological score) vs vehicle,"CIA mice [1]; 50 mg/kg daily, day 36, p = 0.02",~ 30%
same,"average reduction in disease pathology, hind paws and forepaws","CIA mice [1]; 50 mg/kg daily, inflammation, pannus, cartilage damage, bone resorption, periosteal bone formation",20–30%
same,"histological score of cartilage damage, knees","CIA mice [1]; 50 mg/kg daily, p = 0.0042",significantly reduced
same,"histological score of inflammation, knees","CIA mice [1]; 50 mg/kg daily, p = 0.0044",significantly reduced
same,"reduction of bone resorption histological score, knees","CIA mice [1]; 50 mg/kg daily, trend",~ 40%
same,"reduction of pannus histological score, knees","CIA mice [1]; 50 mg/kg daily, trend",~ 40%
same,"overall sum histological score, hind paws","CIA mice [1]; 50 mg/kg daily, vs vehicle, p = 0.0078",reduced
same,"overall sum histological score, forepaws","CIA mice [1]; 50 mg/kg daily, vs vehicle, p = 0.0091",reduced
same,% Inhibition from Vehicle Disease (clinical score AUC),"CIA mice [2]; CIA DBA/1 mice, takinib 50 mg/kg i.p. daily",32%
same,% Inhibition from Vehicle Disease (clinical score AUC),"CIA mice [2]; CIA DBA/1 mice, takinib 50 mg/kg i.p. daily, listed as Takinib",32% (p=0.08)
same,Mean Clinical Arthritic Score (AUC),"CIA mice [2]; CIA DBA/1 mice, takinib 50 mg/kg i.p. daily, evaluated at day 36",14.19
same,less overall body weight loss compared to vehicle control,"CIA mice [2]; CIA mice, 50 mg/kg i.p. daily, at termination of the study, p = 0.009",50%
same,mean daily clinical arthritis scores vs vehicle disease control,"CIA mice [2]; CIA mice, 50 mg/kg i.p. daily, days 30–36",significantly differed
same,"ASC expression, array signal, Mean","RA-FLS cells; takinib 10 μM, n=4",29.77
same,"BCL10 expression, array signal, Mean","RA-FLS cells; takinib 10 μM, n=4",15.76
same,"CARD6 expression, array signal, Mean","RA-FLS cells; takinib 10 μM, n=4",15.29
same,"CD40/TNFRSFS expression, array signal, Mean","RA-FLS cells; takinib 10 μM, n=4",23.956
same,"FADD/MORT1 expression, array signal, Mean","RA-FLS cells; takinib 10 μM, n=4",36.45
same,"Fas/TNFRSF6/CD95 expression, array signal, Mean","RA-FLS cells; takinib 10 μM, n=4",172.1241
same,"IKK1/IKKα/CHUK expression, array signal, Mean","RA-FLS cells; takinib 10 μM, n=4",55.68
same,"IKK2/IKKβ expression, array signal, Mean","RA-FLS cells; takinib 10 μM, n=4",112.6481
same,"IKKγ/NEMO expression, array signal, Mean","RA-FLS cells; takinib 10 μM, n=4",107.307
same,"IL-1 RI expression, array signal, Mean","RA-FLS cells; takinib 10 μM, n=4",21.68
same,"IL-17 RA expression, array signal, Mean","RA-FLS cells; takinib 10 μM, n=4",19.1835
same,"IL-18 Rα expression, array signal, Mean","RA-FLS cells; takinib 10 μM, n=4",17.5855
same,"IRAK1 expression, array signal, Mean","RA-FLS cells; takinib 10 μM, n=4",26.78
same,"IRF5 expression, array signal, Mean","RA-FLS cells; takinib 10 μM, n=4",16.411
same,"IRF8 expression, array signal, Mean","RA-FLS cells; takinib 10 μM, n=4",17.251
same,"IkBα expression, array signal, Mean","RA-FLS cells; takinib 10 μM, n=4",33.4
same,"IkBε expression, array signal, Mean","RA-FLS cells; takinib 10 μM, n=4",178.592
same,"JNK1/2 expression, array signal, Mean","RA-FLS cells; takinib 10 μM, n=4",19.76
same,"JNK2 expression, array signal, Mean","RA-FLS cells; takinib 10 μM, n=4",17.3675
same,"LTBR/TNFRSF3 expression, array signal, Mean","RA-FLS cells; takinib 10 μM, n=4",22.136
same,"MYD88 expression, array signal, Mean","RA-FLS cells; takinib 10 μM, n=4",36.28
same,"Metadherin/AEG-1 expression, array signal, Mean","RA-FLS cells; takinib 10 μM, n=4",31.01
same,"NFκB1 expression, array signal, Mean","RA-FLS cells; takinib 10 μM, n=4",66.143
same,"NFκB2 expression, array signal, Mean","RA-FLS cells; takinib 10 μM, n=4",136.3483
same,"NGF R/TNFRSF16 expression, array signal, Mean","RA-FLS cells; takinib 10 μM, n=4",16.68
same,"RelA/p65 (pS529) array signal, Mean","RA-FLS cells; takinib 10 μM, n=4",41.57
same,"RelA/p65 expression, array signal, Mean","RA-FLS cells; takinib 10 μM, n=4",55.81
same,"SHARPIN expression, array signal, Mean","RA-FLS cells; takinib 10 μM, n=4",17.06
same,"SOCS6 expression, array signal, Mean","RA-FLS cells; takinib 10 μM, n=4",64.37
same,"STAT1 (pY701) array signal, Mean","RA-FLS cells; takinib 10 μM, n=4",15.5275
same,"STAT1p91 expression, array signal, Mean","RA-FLS cells; takinib 10 μM, n=4",116.4024
same,"STAT2 (pY689) array signal, Mean","RA-FLS cells; takinib 10 μM, n=4",15.96
same,"STAT2 expression, array signal, Mean","RA-FLS cells; takinib 10 μM, n=4",148.6364
same,"STING/TMEM173 expression, array signal, Mean","RA-FLS cells; takinib 10 μM, n=4",106.8409
same,"TLR2 expression, array signal, Mean","RA-FLS cells; takinib 10 μM, n=4",15.725
same,"TNF RI/TNFRSF1A expression, array signal, Mean","RA-FLS cells; takinib 10 μM, n=4",14.7
same,"TNF RII/TNFRSF1B expression, array signal, Mean","RA-FLS cells; takinib 10 μM, n=4",18.3335
same,"TRAF2 expression, array signal, Mean","RA-FLS cells; takinib 10 μM, n=4",17.884
same,"TRAIL R1/DR4 expression, array signal, Mean","RA-FLS cells; takinib 10 μM, n=4",21.6
same,"TRAIL R2/DR5 expression, array signal, Mean","RA-FLS cells; takinib 10 μM, n=4",91.34
same,"c-Rel expression, array signal, Mean","RA-FLS cells; takinib 10 μM, n=4",16.52
same,"clAP1/BIRC2 expression, array signal, Mean","RA-FLS cells; takinib 10 μM, n=4",25.47
same,"clAP2/BIRC3 expression, array signal, Mean","RA-FLS cells; takinib 10 μM, n=4",18.82
same,"p53 (pS46) array signal, Mean","RA-FLS cells; takinib 10 μM, n=4",14.94
same,"p53 expression, array signal, Mean","RA-FLS cells; takinib 10 μM, n=4",17.85
same,number of NF-κB signaling proteins significantly altered,"RA-FLS cells; takinib, out of 45 profiled",20
